# Patent US20140162991A1, “TESTOSTERONE-ANASTROZOLE (T + A) C[…] IN THE NEO-ADJUVANT, LOCAL AND SYSTEMIC THERAPY OF NEWLY DIAGNOSED, […] BREAST CANCER” (priority 2012, published 2014)
# Test: adverse effects and systemic symptoms in treated patients
# Conditions: pharmacologic doses of testosterone
compound,measurement,setting,value
C[C@]12CC[C@H]3[C@@H](CCC4=CC(=O)CC[C@@]43C)[C@@H]1CC[C@@H]2O [testosterone],adverse events,,not associated with adverse events
same,androgenic side effect,applicant's patients,slight increase in facial hair
